Data taken from patent US4418205A, “16-Amino-18,19,20-trinor-prostaglandin derivatives, and acid addition salts” (priority 1980, dated 1983).
Read-outs that look alike come from different tables or passages of the source.

Experiments:
[1] = system: hamsters being in the 4th, 5th, and 6th day of pregnancy; assay: Interruption of early pregnancy in hamsters, subcutaneous; format: in vivo, hamster; conditions: for ED50: Mesocricetus auratus, sc, hamster, 1st trimestre, treated subcutaneously day 4, 5, 6, autopsy day 8, read-out: Approx. ED50
Experimental: (§1) Here hamsters being in the 4th, 5th, and 6th day of pregnancy were treated subcutaneously, and following autopsy on the 8th day, the number of intrauterine embryonal implantations, as well as the condition of the ovaria were investigated /N. S. Crossley: Prostaglandins 10, 5 /1975//. Similarly rats were treated on the 4th, 5th, 6th and 7th day of pregnancy, and killed on the 9th day, and the interruption of pregnancy registered at the autopsy /W. Skuballa et al.: J. Med. Chem. […], 443 /1978//.
(§2) Applying the above methods the dose-response relationship was established at PGF2α, and its methyl ester, as well as the compounds of general formula I of the present invention. The number of animals was 5 per dose.
(§3) A similar increase in potency could be observed at the treatment of animals being in the 1st trimestre of their pregnancy.
The 50 fold increase in potency compared to that of PGF2α is especially worth mentioning in the case of hamsters, as this test is suitable for the sensitive detection of the abortive effect of a given compound if it has lutheolytic activity.

[2] = system: mice being in the 16th to 17th day of their pregnancy; assay: Abortion induction in mice in the 3rd trimestre of pregnancy, subcutaneous; format: in vivo; conditions: pregnant mice; for ED50: Mus musculus, sc, 16th to 17th day, subcutaneous, abortions within 48 hours, obtained by interpolation, read-out: Approx. ED50 (dose inducing abortion in 50 percent of the animals)
Experimental: According to one of the test methods /M. J. K. Harper and R. C. Skarnes: Advances in Biosciences 9, 789 /1973// the test material was administered subcutaneously to mice being in the 16th to 17th day of their pregnancy /3rd trimestre/, then the number of abortions ensuing with 48 hours was registered, as well as the live and dead fetuses following the removal of the uterus, and the scars on the placenta.
as §2

pregnant mice = conditions: mouse, in vivo
[3] = system: rats treated on the 4th, 5th, 6th and 7th day of pregnancy; assay: Interruption of early pregnancy in rats; format: in vivo; conditions: rat, 1st trimestre, treated day 4, 5, 6, 7, killed day 9; read-out: Approx. ED50
Experimental: as §1, §2, §3

induction of diarrhoea (pregnant mice; 3 mg/kg)	Structure (SMILES)	ED50 [1] [mg/kg]	increase in potency compared to that of PGF2α ([1]; hamsters) [fold]	ED50 [2] [mg/kg]	potency compared to PGF2α ([2]; from ED50 values) [fold]	potency compared to PGF2α methyl ester ([2]; from ED50 values) [fold]	ED50 [3] [mg/kg]	incidence of diarrhoea (pregnant mice; 3 mg/kg)	incidence of diarrhoea (pregnant mice; 10 mg/kg)
failed to induce diarrhoea	COC(=O)CCC/C=C\C[C@@H]1[C@@H](/C=C/C(O)[C@@H](N)Cc2ccccc2)[C@H](O)C[C@@H]1O (single isomer, unassigned) [9α,11α,15/.xi./-Trihydroxy-16/S/-amino-17-phenyl-5-cis,13-trans-18,19,20-trinor-prostadienoic acid methyl ester]	~0.0005	50	~1.2	13	8	~0.1		
	CCCCC[C@H](O)/C=C/[C@@H]1[C@@H](C/C=C\CCCC(=O)OC)[C@@H](O)C[C@H]1O [PGF2α -methyl ester, reference compound]			~10				over 50%	
	CCCCC[C@H](O)/C=C/[C@@H]1[C@@H](C/C=C\CCCC(=O)O)[C@@H](O)C[C@H]1O [PGF2α, reference compound]	~0.025		~16			~1		over 50%
